“And” between values parts separate entries of the source, which are not always exact repeats. Equal entries are not always repeated.
Legend:
[1] = test system: THP-1 human acute monocytic leukemia cells; assay: Cytokine production by THP-1 cells (ELISA); assay type: cell-based; details: THP-1, 1×10^6 cells, 100 μg/ml, 48 h; for ↑ IL-12 (fold increase treated vs control cells): p70 complex and free p40
Summary of the method: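 Read-out is fold increase in supernatant cytokine versus control cells, measured by ELISA (IL-12 ELISA counts p70 complex plus free p40). Unless noted, sequences were tested at 100 μg/ml on 1×10^6 cells, incubated 48 h, 37° C, 5% CO2.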

[2] = test system: PC-3 human prostate cancer cells; assay: Inhibition of PC-3 cell proliferation (MTT); assay type: cell-based; details: 100 μg/ml, 48 h, 5×10^5 cells/ml
Summary of the method: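 PC-3 cells (5×10^5 cells/ml) exposed 48 h at 37 °C to 3- and 6-base GT oligonucleotide sequences at 100 μg/ml versus untreated control. Proliferation read by MTT reduction at 570 nm.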

[3] = test system: EL-4 murine T lymphoma cells; assay: Inhibition of EL-4 cell proliferation (MTT); assay type: cell-based; details: 100 μg/ml, 48 h
Summary of the method: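 EL-4 cells at 2.5×10^5 cells/ml were exposed for 48 h at 37° C, 5% CO2, to 100 μg/ml of 2- to 45-base sequences of A, C, G and T, against untreated controls. Proliferation was read by MTT reduction at 570 nm.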

[4] = Melting temperature (Tm) of sequences; assay type: physicochemical
[5] = test system: MCF-7 human breast cancer cells; assay: Inhibition of MCF-7 cell proliferation (MTT); assay type: cell-based; details: for % INHIBITION of MCF-7 human breast cancer cell proliferation: 100 μg/ml, 48 h, 5×10^5 cells/ml
Summary of the method: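 Cells at 2.5×10^5 cells/ml (GT 3- and 6-base series at 5×10^5 cells/ml) treated with 100 μg/ml of 2-45-base oligonucleotide sequences versus untreated control for 48 h at 37 °C, 5% CO2. Proliferation read by MTT reduction at 570 nm.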

chimpanzee PBMCs = assay: Cytokine production by chimpanzee PBMC (ELISA); assay type: cell-based; details: PBMC of 4 healthy chimpanzees, 100 μg/ml, 48 h
Summary of the method: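 PBMCs from 4 healthy chimpanzees (1×10^6 cells) were incubated 48 h at 37 °C, 5% CO2 with 100 μg/ml of each 6-base sequence. Supernatant IL-10, IL-12 (p70 plus free p40) and TNF-alpha were measured by ELISA. Values are fold increase over untreated control cells.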

[6] = test system: CF-51 canine mammary gland cancer cells; assay: Inhibition of CF-51 cell proliferation (MTT); assay type: cell-based; details: 100 μg/ml, 48 h, 5×10^5 cells/ml
Description: (§1) Cells were seeded in 6 (1 ml/well), 24 (0.5 ml/well) or 96 (0.1 ml/well) well flat-bottom microplates and were maintained at 37° C. in a 5% CO2 atmosphere. Unless stated otherwise, 2.5×10^5 cells/ml were incubated with 0 μg/ml (control) and 100 μg/ml (treated) of 2 to 45 base sequences containing A, C, G and T for 48 h.
(§2) Cell proliferation was measured using dimethylthiazol-diphenyl-tetrazolium (MTT) reduction (Mosman et al. J. Immunol. Methods 65:55, 1983). MTT was measured at a wavelength of 570 nm using a multiplate spectrophotometer reader (ELX800, Bio-TEK Instruments Inc., Winooski, Vt.).
(§3) D-17 canine osteosarcoma cells and CF-51 canine mammary gland cancer cells are solid tumor models. D-17 canine osteosarcoma cells (5×10^5 cells/ml) (Table 20) and CF-51 canine mammary gland cancer cells (5×10^5 cells/ml) (Table 21) were incubated with 6, 9, 17, 27 and 33 base GT-sequences and with a 15 base ACG sequence.

[7] = test system: A20 murine B leukemia cells; assay: Inhibition of A20 cell proliferation (MTT); assay type: cell-based; details: 100 μg/ml, 48 h
Description: as §1, §2
A20 murine leukemia B cells are a suspension tumor model. A20 murine leukemia B cells were incubated with 6 base GT sequences (Table 19).

[8] = test system: D-17 canine osteosarcoma cells; assay: Inhibition of D-17 cell proliferation (MTT); assay type: cell-based; details: 100 μg/ml, 48 h, 5×10^5 cells/ml
Description: as §1, §2, §3

[9] = test system: Jurkat human leukemia T cells; assay: NuMA release into supernatant (ELISA); assay type: cell-based; details: for % NuMA released (treated vs untreated cells): 50 μM sequence
Summary of the method: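 Jurkat T cells (1×10^6/ml) exposed to GT-containing oligonucleotide sequences, at 50 μM in some experiments, for 24 h in some experiments. NuMA released into the supernatant quantified by commercial ELISA.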

Sequence | ↑ IL-6 (fold increase treated vs control cells) [1] | ↑ IL-12 (fold increase treated vs control cells) [1] | % INHIBITION of PC-3 human prostate cancer cell proliferation [2] | % INHIBITION of EL-4 murine T lymphoma cell proliferation [3] | % INHIBITION of MCF-7 human breast cancer cell proliferation [5] | IL-10 fold increase: mean +/− SD (chimpanzee PBMCs) | IL-12 fold increase: mean +/− SD (chimpanzee PBMCs) | TNF-alpha fold increase: mean +/− SD (chimpanzee PBMCs) | % INHIBITION of CF-51 canine mammary gland cancer cell proliferation [6] | % INHIBITION of A20 murine B leukemia cell proliferation [7] | % INHIBITION of D-17 canine osteosarcoma cell proliferation [8] | % NuMA released (treated vs untreated cells) ([9]; Jurkat) | further results
GGGTGG [SEQ ID NO:25] | 3.1x | 2.3x and 2.0x | 38% | 4% and 1% | 41% | 2.5 +/− 1.5 fold increase | 13.5 +/− 8.4 fold increase | 11.7 +/− 6.7 fold increase | 14% | 11% | 18% | 69% | ↑ IL-12 (fold increase treated vs control cells) ([1]; listed as GoGoGoToGoGo): 2.0 x; melting temperature (Tm) [4]: 2.5 °C; % INHIBITION of MCF-7 proliferation, 5-Fluorouracil 0.1 μg/ml ([5]; 5-fluorouracil 0.1 μg/ml, alone or with sequence at 1.0 μg/ml): 24%; % INHIBITION of MCF-7 proliferation, 5-Fluorouracil 1.0 μg/ml ([5]; 5-fluorouracil 1.0 μg/ml, alone or with sequence at 1.0 μg/ml): 36%; % INHIBITION of MCF-7 proliferation, 5-Fluorouracil 10.0 μg/ml ([5]; 5-fluorouracil 10.0 μg/ml, alone or with sequence at 1.0 μg/ml): 33%; potentiation of antineoplastic effect of 5-fluorouracil on MCF-7 cell proliferation ([5]; sequence 1.0 μg/ml, 0.1 μg/ml 5-fluorouracil): potentiated; potentiation of antineoplastic effect of tamoxifen on MCF-7 cell proliferation ([5]; sequence 1.0 μg/ml, 0.1 μg/ml tamoxifen): potentiated; % INHIBITION of MCF-7 proliferation, 5-Fluorouracil 0.0 μg/ml ([5]; sequence at 1.0 μg/ml, 5-fluorouracil 0.0 μg/ml): 6%; % INHIBITION of MCF-7 proliferation, Tamoxifen 0.0 μg/ml ([5]; sequence at 1.0 μg/ml, tamoxifen 0.0 μg/ml): 6%; % INHIBITION of MCF-7 proliferation, Tamoxifen 0.1 μg/ml ([5]; tamoxifen 0.1 μg/ml, alone or with sequence at 1.0 μg/ml): 21%; % INHIBITION of MCF-7 proliferation, Tamoxifen 1.0 μg/ml ([5]; tamoxifen 1.0 μg/ml, alone or with sequence at 1.0 μg/ml): 24%; % INHIBITION of MCF-7 proliferation, Tamoxifen 10.0 μg/ml ([5]; tamoxifen 10.0 μg/ml, alone or with sequence at 1.0 μg/ml): 31%; % NUMA RELEASED ([9]; Jurkat 1×10^6/ml): 269%; % NuMA released (untreated vs treated cells) ([9]; Jurkat, 24 h, sequences heated 10 minutes at 65° C.): 69%
GTGTGT [SEQ ID NO:10] | 5.0x | 2.2x | 37% | −2% | 31% | 4.0 +/− 2.1 fold increase | 14.0 +/− 8.5 fold increase | 12.9 +/− 6.4 fold increase | 15% | 9% | 15% | 90% | 
TTGTTT [SEQ ID NO:26] | 5.3 x | 3.5x and 3.8x | 18% |  | 20% | 1.4 +/− 0.9 fold increase | 12.3 +/− 8.5 fold increase | 7.5 +/− 4.6 fold increase |  | 15% |  | 23% | 

— US20070213291A1, “Therapeutically useful synthetic oligonucleotides” (priority 1999, published 2007)
